{
  "source": "patent US10174001B2",
  "about": "“Crystals of 5-cyclopropyl-2-((1-(3-fluorobenzyl)-1H-indol-5-yl)amino)nicotinic acid” (FUJIFILM Toyama Chemical Co., Ltd., priority 2015, dated 2019)",
  "key": {"[1]": {"assay": "Test Example 4: Stability (HPLC purity and crystal form on storage)", "format": "physicochemical", "details": "for Purity (%): HPLC", "description": "The α-form crystal and the β-form crystal were preserved under the conditions of 40 or 60° C. and a relative humidity of 75%.\nTwelve weeks after the test started, the purity was measured by HPLC. Additionally, crystal forms were measured by the infrared absorption spectrum.\nHPLC Measurement conditions\nMeasurement wavelength: 270 nm\nColumn: Ascentis Express C18, inner diameter 3.0 mm×length 150 mm\nColumn temperature: 40° C.\nMobile phase: 0.1% phosphoric acid/(acetonitrile/water=60/40) solution"}, "[2]": {"assay": "Test Example 3: Hygroscopicity (rate of weight change and crystal form)", "format": "physicochemical", "details": "for Stability (hygroscopicity test): 25° C., relative humidity of 75 or 97%", "description": "The α-form crystal and the β-form crystal were preserved under the conditions of 25° C. and a relative humidity of 75 or 97%.\nSampling was carried out over time and the weights of crystals were measured to determine rates of weight changes. Additionally, crystal forms were measured by the infrared absorption spectrum.\nRate of weight change (%)=((B−A)/A)×100\nA: Crystal weight before the test started\nB: Crystal weight after the test started"}, "[3]": {"assay": "Test Example 1: Solubility in various organic solvents", "format": "physicochemical", "details": "for Solubility / solubility at 24 h: stirred for 24 hours; for solubility at 24 h: organic solvent or mixture, thermodynamic from solid", "description": "The α-form crystal (about 100 mg) or the β-form crystal (about 100 mg) was suspended in various organic solvents (about 1 mL) and stirred for 24 hours. Impurities were filtered off using a membrane filter and the filtrate was analyzed by HPLC to determine the solubility."}, "[4]": {"assay": "Test Example 2: Physical Stability (mixed α/β crystals stirred in solvent, crystal form by infrared absorption spectrum)", "format": "physicochemical", "description": "The α-form crystal (1 part by weight) and the β-form crystal (1 part by weight) were mixed, suspended in a solvent (ethyl acetate/ethanol=5/1.5 parts by weight) and stirred at 26, 70 or 100° C.\nSampling was carried out over time and crystal forms were measured by the infrared absorption spectrum."}, "keratinocyte": {"test_system": "keratinocyte", "details": "cited from earlier work"}},
  "data": [
    {"smiles": "O=C(O)c1cc(C2CC2)cnc1Nc1ccc2c(ccn2Cc2cccc(F)c2)c1", "note": "[β-Form crystal, 5-cyclopropyl-2-((1-(3-fluorobenzyl)-1H-indol-5-yl)amino)nicotinic acid]", "values": [
      {"measurement": "Crystal form", "setting": "[1]; 40° C. 75% RH, 0 hr", "result": "β"},
      {"measurement": "Purity (%)", "setting": "[1]; 40° C. 75% RH, 0 hr", "result": 99.6, "unit": "%"},
      {"measurement": "Crystal form", "setting": "[1]; 40° C. 75% RH, 12 weeks", "result": "β"},
      {"measurement": "Purity (%)", "setting": "[1]; 40° C. 75% RH, 12 weeks", "result": 99.7, "unit": "%"},
      {"measurement": "Crystal form", "setting": "[1]; 60° C. 75% RH, 0 hr", "result": "β"},
      {"measurement": "Purity (%)", "setting": "[1]; 60° C. 75% RH, 0 hr", "result": 99.6, "unit": "%"},
      {"measurement": "Crystal form", "setting": "[1]; 60° C. 75% RH, 12 weeks", "result": "β"},
      {"measurement": "Purity (%)", "setting": "[1]; 60° C. 75% RH, 12 weeks", "result": 99.7, "unit": "%"},
      {"measurement": "Crystal form", "setting": "[2]; 25° C. 75% RH, 0 hr", "result": "β"},
      {"measurement": "Rate of weight change (%)", "setting": "[2]; 25° C. 75% RH, 0 hr", "result": 0.00, "unit": "%"},
      {"measurement": "Crystal form", "setting": "[2]; 25° C. 75% RH, 2 weeks", "result": "β"},
      {"measurement": "Rate of weight change (%)", "setting": "[2]; 25° C. 75% RH, 2 weeks", "result": 0.07, "unit": "%"},
      {"measurement": "Crystal form", "setting": "[2]; 25° C. 75% RH, 4 weeks", "result": "β"},
      {"measurement": "Rate of weight change (%)", "setting": "[2]; 25° C. 75% RH, 4 weeks", "result": 0.07, "unit": "%"},
      {"measurement": "Crystal form", "setting": "[2]; 25° C. 75% RH, 8 weeks", "result": "β"},
      {"measurement": "Rate of weight change (%)", "setting": "[2]; 25° C. 75% RH, 8 weeks", "result": 0.20, "unit": "%"},
      {"measurement": "Crystal form", "setting": "[2]; 25° C. 75% RH, 12 weeks", "result": "β"},
      {"measurement": "Rate of weight change (%)", "setting": "[2]; 25° C. 75% RH, 12 weeks", "result": 0.18, "unit": "%"},
      {"measurement": "Crystal form", "setting": "[2]; 25° C. 97% RH, 0 hr", "result": "β"},
      {"measurement": "Rate of weight change (%)", "setting": "[2]; 25° C. 97% RH, 0 hr", "result": 0.00, "unit": "%"},
      {"measurement": "Crystal form", "setting": "[2]; 25° C. 97% RH, 2 weeks", "result": "β"},
      {"measurement": "Rate of weight change (%)", "setting": "[2]; 25° C. 97% RH, 2 weeks", "result": 0.10, "unit": "%"},
      {"measurement": "Crystal form", "setting": "[2]; 25° C. 97% RH, 4 weeks", "result": "β"},
      {"measurement": "Rate of weight change (%)", "setting": "[2]; 25° C. 97% RH, 4 weeks", "result": 0.11, "unit": "%"},
      {"measurement": "Crystal form", "setting": "[2]; 25° C. 97% RH, 8 weeks", "result": "β"},
      {"measurement": "Rate of weight change (%)", "setting": "[2]; 25° C. 97% RH, 8 weeks", "result": 0.26, "unit": "%"},
      {"measurement": "Crystal form", "setting": "[2]; 25° C. 97% RH, 12 weeks", "result": "β"},
      {"measurement": "Rate of weight change (%)", "setting": "[2]; 25° C. 97% RH, 12 weeks", "result": 0.25, "unit": "%"},
      {"measurement": "Stability (hygroscopicity test)", "setting": "[2]", "result": "stable"},
      {"measurement": "Solubility", "setting": "[3]; 2-Propanol", "result": 3.0, "unit": "mg/mL"},
      {"measurement": "Solubility", "setting": "[3]; Acetone", "result": 48.9, "unit": "mg/mL"},
      {"measurement": "Solubility", "setting": "[3]; Acetonitrile", "result": 2.7, "unit": "mg/mL"},
      {"measurement": "Solubility", "setting": "[3]; Ethanol", "result": 6.8, "unit": "mg/mL"},
      {"measurement": "Solubility", "setting": "[3]; Ethyl acetate", "result": 16.8, "unit": "mg/mL"},
      {"measurement": "Solubility", "setting": "[3]; Isopropyl acetate", "result": 9.8, "unit": "mg/mL"},
      {"measurement": "Solubility", "setting": "[3]; Methyl ethyl ketone", "result": 55.3, "unit": "mg/mL"},
      {"measurement": "Solubility", "setting": "[3]; Methyl tert-butyl ether", "result": 8.1, "unit": "mg/mL"},
      {"measurement": "Relative stability of crystal forms", "setting": "[3]; concluded from solubility", "result": "more stable than the α-form crystal"},
      {"measurement": "Solubility compared between crystal forms", "setting": "[3]; various organic solvents", "result": "lower than the solubility of the α-form crystal"},
      {"measurement": "Relative stability of crystal forms", "setting": "[4]; concluded from crystal transition in suspension", "result": "more stable than the α-form crystal"}
    ]},
    {"smiles": "O=C(O)c1cc(C2CC2)cnc1Nc1ccc2c(ccn2Cc2cccc(F)c2)c1", "note": "[Compound A, 5-Cyclopropyl-2-((1-(3-fluorobenzyl)-1H-indol-5-yl)amino)nicotinic acid]", "values": [
      {"measurement": "Antiproliferative activity on keratinocyte", "setting": "keratinocyte", "result": "excellent antiproliferative activity on keratinocyte"}
    ]},
    {"smiles": "O=C(O)c1cc(C2CC2)cnc1Nc1ccc2c(ccn2Cc2cccc(F)c2)c1", "note": "[α-Form crystal, 5-cyclopropyl-2-((1-(3-fluorobenzyl)-1H-indol-5-yl)amino)nicotinic acid]", "values": [
      {"measurement": "Crystal form", "setting": "[1]; 40° C. 75% RH, 0 hr", "result": "α"},
      {"measurement": "Purity (%)", "setting": "[1]; 40° C. 75% RH, 0 hr", "result": 99.4, "unit": "%"},
      {"measurement": "Crystal form", "setting": "[1]; 40° C. 75% RH, 12 weeks", "result": "α"},
      {"measurement": "Purity (%)", "setting": "[1]; 40° C. 75% RH, 12 weeks", "result": 99.5, "unit": "%"},
      {"measurement": "Crystal form", "setting": "[1]; 60° C. 75% RH, 0 hr", "result": "α"},
      {"measurement": "Purity (%)", "setting": "[1]; 60° C. 75% RH, 0 hr", "result": 99.4, "unit": "%"},
      {"measurement": "Crystal form", "setting": "[1]; 60° C. 75% RH, 12 weeks", "result": "α"},
      {"measurement": "Purity (%)", "setting": "[1]; 60° C. 75% RH, 12 weeks", "result": 99.5, "unit": "%"},
      {"measurement": "Crystal form", "setting": "[2]; 25° C. 75% RH, 0 hr", "result": "α"},
      {"measurement": "Rate of weight change (%)", "setting": "[2]; 25° C. 75% RH, 0 hr", "result": 0.00, "unit": "%"},
      {"measurement": "Crystal form", "setting": "[2]; 25° C. 75% RH, 2 weeks", "result": "α"},
      {"measurement": "Rate of weight change (%)", "setting": "[2]; 25° C. 75% RH, 2 weeks", "result": 0.08, "unit": "%"},
      {"measurement": "Crystal form", "setting": "[2]; 25° C. 75% RH, 4 weeks", "result": "α"},
      {"measurement": "Rate of weight change (%)", "setting": "[2]; 25° C. 75% RH, 4 weeks", "result": 0.08, "unit": "%"},
      {"measurement": "Crystal form", "setting": "[2]; 25° C. 75% RH, 8 weeks", "result": "α"},
      {"measurement": "Rate of weight change (%)", "setting": "[2]; 25° C. 75% RH, 8 weeks", "result": 0.24, "unit": "%"},
      {"measurement": "Crystal form", "setting": "[2]; 25° C. 75% RH, 12 weeks", "result": "α"},
      {"measurement": "Rate of weight change (%)", "setting": "[2]; 25° C. 75% RH, 12 weeks", "result": 0.22, "unit": "%"},
      {"measurement": "Crystal form", "setting": "[2]; 25° C. 97% RH, 0 hr", "result": "α"},
      {"measurement": "Rate of weight change (%)", "setting": "[2]; 25° C. 97% RH, 0 hr", "result": 0.00, "unit": "%"},
      {"measurement": "Crystal form", "setting": "[2]; 25° C. 97% RH, 2 weeks", "result": "α"},
      {"measurement": "Rate of weight change (%)", "setting": "[2]; 25° C. 97% RH, 2 weeks", "result": 0.13, "unit": "%"},
      {"measurement": "Crystal form", "setting": "[2]; 25° C. 97% RH, 4 weeks", "result": "α"},
      {"measurement": "Rate of weight change (%)", "setting": "[2]; 25° C. 97% RH, 4 weeks", "result": 0.17, "unit": "%"},
      {"measurement": "Crystal form", "setting": "[2]; 25° C. 97% RH, 8 weeks", "result": "α"},
      {"measurement": "Rate of weight change (%)", "setting": "[2]; 25° C. 97% RH, 8 weeks", "result": 0.38, "unit": "%"},
      {"measurement": "Crystal form", "setting": "[2]; 25° C. 97% RH, 12 weeks", "result": "α"},
      {"measurement": "Rate of weight change (%)", "setting": "[2]; 25° C. 97% RH, 12 weeks", "result": 0.32, "unit": "%"},
      {"measurement": "Stability (hygroscopicity test)", "setting": "[2]", "result": "stable"},
      {"measurement": "solubility at 24 h", "setting": "[3]; 2-propanol", "result": 3.5, "unit": "mg/mL"},
      {"measurement": "solubility at 24 h", "setting": "[3]; acetone", "result": 55, "unit": "mg/mL"},
      {"measurement": "solubility at 24 h", "setting": "[3]; acetonitrile", "result": 3.1, "unit": "mg/mL"},
      {"measurement": "solubility at 24 h", "setting": "[3]; ethanol", "result": 8.8, "unit": "mg/mL"},
      {"measurement": "solubility at 24 h", "setting": "[3]; ethyl acetate", "result": 19.7, "unit": "mg/mL"},
      {"measurement": "solubility at 24 h", "setting": "[3]; isopropyl acetate", "result": 11.5, "unit": "mg/mL"},
      {"measurement": "solubility at 24 h", "setting": "[3]; methyl ethyl ketone", "result": 63.1, "unit": "mg/mL"},
      {"measurement": "solubility at 24 h", "setting": "[3]; methyl tert-butyl ether", "result": 10.1, "unit": "mg/mL"},
      {"measurement": "Crystal transition", "setting": "[4]; mixed crystals stirred at 26, 70 or 100° C.", "result": "transitioned to the β-form crystal"}
    ]}
  ]
}
